These results are taken from patent US8034899B2, “HIV fusion inhibitor peptides with improved biological properties” (priority 2006, dated 2011).

Data set [1] can be described thus: Pharmacokinetics after intravenous dosing in cynomolgus monkeys. The format is in vivo, cynomolgus monkeys (Macaca fasicularis). The note with it: plasma. The method, then: For determining pharmacokinetic properties, an HIV fusion inhibitor peptide or a base sequence from which an HIV fusion inhibitor peptide is derived was dosed intravenously in cynomolgus monkeys (Macaca fasicularis) (other animal models may be used for determining pharmacokinetic properties, as known in the art). At various times post-dose, blood samples were drawn and plasma isolated by centrifugation. Plasma samples were stored frozen until analysis by LC-MS (liquid chromatography/mass spectrometry) in the electrospray, positive-ion mode. An HIV fusion inhibitor or base sequence was eluted from a C18 or C8 HPLC column with a gradient of acetonitrile in a buffer of 10 mM ammonium acetate, pH 6.8. At the time of analysis, plasma samples were deproteinated with either two or three volumes of acetonitrile containing 0.5% formic acid. Duplicate calibration standards in cynomolgus plasma samples were prepared at the same time as the samples and analyzed before and after the samples containing either HIV fusion inhibitor peptide or base sequence. Pharmacokinetic properties were calculated from the plasma concentration-time data using either mono-exponential or bi-exponential mathematical models. Models were derived by non-linear least squares optimization. A 1/C^2 weighting of concentrations was used. […]

The subject of a further data set is HIV-1 IIIB. The note with it: cited from earlier work.
The subject of data set [2] is virus isolates (IIIB, 030, 060 and 098). As to the kind of experiment: In vitro resistance selection, geometric mean over the four isolates. The note with it: Geometric Mean of four isolates. Format: cell-based, HIV. An excerpt:
MT2 cells were infected with virus isolates (IIIB, 030, 060 and 098) and cultured in increasing concentrations of SEQ ID NO:2 (enfuvirtide) or SEQ ID NO:9 to select for resistance. The initial peptide concentration was approximately 2 times the IC50 of each peptide against the corresponding wild type isolate. Peptide concentrations were maintained by adding fresh peptide every 1-3 days. Cultures were monitored for cytopathic effect (CPE) using standard techniques and when maximal CPE was achieved, a small aliquot of virus was used for subsequent rounds of infection. Peptide concentrations were increased 2 to 4-fold depending on the length of time in culture when compared to the growth rate of wild type virus. During the course of selection, peptide-free virus stocks were also collected. Peptide-free virus stocks were characterized for gp41 genotypic changes by dideoxy sequencing chemistries and phenotypic susceptibility was determined using a cMAGI infectivity assay.

A further data set relates to 584.000098. The experiment in a line: In vitro resistance selection in MT2 cells, cMAGI susceptibility, isolate 584.000098. The format is cell-based, HIV. The note with it: starting isolate 584.000098. An excerpt:
(§1) Assessment of biological properties included measurement of antiviral activity against HIV-1 strains. […] These assays score for reduction of infectious virus titer employing the indicator cell lines MAGI or the CCR5 expressing derivative cMAGI. Both cell lines exploit the ability of HIV-1 tat to transactivate the expression of a β-galactosidase reporter gene driven by the HIV-LTR. The β-gal reporter has been modified to localize in the nucleus and can be detected with the X-gal substrate as intense nuclear staining within a few days of infection. […] The number of infected cells for each control and peptide dilution was determined with the CCD-imager, and then the IC50 was calculated (expressed in μg/ml).
(§2) MT2 cells were infected with virus isolates (IIIB, 030, 060 and 098) and cultured in increasing concentrations of SEQ ID NO:2 (enfuvirtide) or SEQ ID NO:9 to select for resistance. […] Cultures were monitored for cytopathic effect (CPE) using standard techniques and when maximal CPE was achieved, a small aliquot of virus was used for subsequent rounds of infection. […] Peptide-free virus stocks were characterized for gp41 genotypic changes by dideoxy sequencing chemistries and phenotypic susceptibility was determined using a cMAGI infectivity assay.

Another data set concerns 584.000060. As to the kind of experiment: In vitro resistance selection in MT2 cells, cMAGI susceptibility, isolate 584.000060. Format: cell-based, HIV. The note with it: starting isolate 584.000060.
Source text: as §1, §2

The test system of another data set is 584.000030. As to the kind of experiment: In vitro resistance selection in MT2 cells, cMAGI susceptibility, isolate 584.000030. Format: cell-based, HIV. The note with it: starting isolate 584.000030.
Source text: as §1, §2

For data set [3] the following is noted: 10 mg/ml in PBS, pH 7.3 to 7.5, 37° C., after several hours.
For another data set, the system named is HIV-1LA1. The note with it: cited from earlier work.
Another data set concerns IIIB. As to the kind of experiment: In vitro resistance selection in MT2 cells, cMAGI susceptibility, isolate IIIB. The format is cell-based, HIV. The note with it: starting isolate IIIB.
Source text: as §1, §2

The conditions of data set [4]: no additional components; cited from earlier work.

Where only a bound is given, the exact number is not on record here.

Turning to “Ac-TTWEAWDRAIAEYAARIEALLRAAQEQQEKLEAALREL-NH2 [SEQ ID NO:10, TTWEAWDRAIAEYAARIEALLRAAQEQQEKLEAALREL]”, the “Clearance” value in data set [1] is <0.33 mL/min/kg.
As to “Ac-TTWEAWDRAIAEYAARIEALLRALQEQQEKNEAALREL-NH2 [SEQ ID NO:9, TTWEAWDRAIAEYAARIEALLRALQEQQEKNEAALREL]”, the “Clearance” value in [1] was <0.33 mL/min/kg.
On to “MTWMEWDREINNYTSLIHSLIEESQNQQEKNEQELL [T651]”, for which the “IC50 blocking infection of target cells” value with HIV-1 IIIB is 5 ng/mL.
As to enfuvirtide, the “Fold Change in IC50” value came out at 42 fold in data set [2]; 912 fold in the data set on 584.000098; 7 fold with 584.000060; 19 fold with 584.000030; 27 fold in the data set with IIIB. Moreover, the “stability of the solution (peptide remaining in solution)” value in [3] was “minimal peptide detected in solution”. Also, the “EC50 blocking infection of target cells” value with HIV-1LA1 is 0.5 ng/mL. Moreover, the “concentration achievable in an injectable aqueous solution without problems of solubility and stability” value in data set [4] is ≤ 100 mg/mL.
